Laboratory results from PMC2648833 (Biochemistry, 2008).

How the values were obtained:
Assay in all cases: […] release, TLC
Assay type in all cases: biochemical
Conditions in all cases: labelled compound; 1 mM ATP, 2 mM MgCl2, salmon sperm DNA, Tris-HCl pH 8.0, 37 °C
[1] = biological target: UvrD2 (MsmUvrD2), full-length (Mycolicibacterium smegmatis, UniProt A0QTT0, C614A/C617A)
UvrD2-(1-630) (ΔHRDC) = UvrD2-(1-630) (ΔHRDC) (Mycolicibacterium smegmatis, UniProt A0QTT0)
[2] = biological target: UvrD2 (MsmUvrD2), full-length (Mycolicibacterium smegmatis, UniProt A0QTT0)

Nc1ncnc2c1ncn2[C@@H]1O[C@H](COP(=O)(O)OP(=O)(O)OP(=O)(O)O)[C@@H](O)[C@H]1O [ATP]
32Pi release, TLC [1]: The paired cysteine mutations had no deleterious effect on DNA-dependent ATPase specific activity
32Pi release, TLC (UvrD2-(1-630) (ΔHRDC)): The two proteins displayed virtually identical specific activity for ATP hydrolysis
32Pi release, TLC [2]: The two proteins displayed virtually identical specific activity for ATP hydrolysis
